Measured values: patent US20090130064A1, “DIFFERENTIATION OF STEM CELLS AND STABILIZATION OF PHENOTYPICAL PROPERTIES OF PRIMARY CELLS” (priority 2004, published 2009)

Columns and labels:
p21 = assay: Western blotting of p21 in primary rat hepatocytes; format: cell-based
Source text: Male outbred Sprague-Dawley rats (200-300 g, Iffa Credo, Brussels, Belgium) were kept under controlled environmental conditions (12-hr light-dark cycle) and fed a standard diet (Animafabo A04, water ad libitum). Hepatocytes were isolated by a two-step collagenase perfusion as described (De Smet et al. In ‘Methods in Molecular Biology, Vol. 107: Cytochrome P450 Protocols’, Philips I R and Shephard E A, eds., pp 295-301, Humana Press, Totowa, 1998). Cell liability was >90% as determined by trypan blue exclusion. Cells (0.4×10^5 cells/cm^2) were plated in MEM/M199 (3:1), containing BSA (1 mg/ml), bovine insulin (10 μg/ml), L-glutamine (2 mM), FBS (10% v/v) and antibiotics (7.3 IU/ml benzyl penicillin, 50 μg/ml streptomycin sulphate, 50 μg/ml kanamycin monosulphstep and 10 μg/ml sodium ampicillin). Four hours after plating, serum-containing medium was removed and fresh serum-free medium was added to the cultures. Culture medium was refreshed daily. […]
Total cell extracts were prepared as described previously (Papeleu et al. J Hepatol 39: 374-382, 2003) and proteins (25 or 50 μg per lane) were separated electrophoretically by SDS-PAGE and electroblotted onto nitrocellulose membranes (Amersham Pharmacia Biotech, Buckinghamshire, UK). […] Proteins were detected using the ECL detection system (Amersham Pharmacia Biotech, Buckinghamshire, UK) according to the manufacturer's recommendations.

primary rat hepatocytes = assay: Albumin secretion (ELISA) by primary rat hepatocyte cultures; format: cell-based
Description: Medium samples were collected at 72 hours of culture and analyzed for their albumin content by an enzyme-linked immunosorbent assay (ELISA) as described (Dunn et al. Biotechnol Prog 7: 237-245, 1991) Cell morphology was analyzed by light microscopy (×100). Pictures were taken using an Optiphot Nikon Phase Contrast microscope (Cetec, Brussels, Belgium).
Medium samples were collected at 72 hours of culture and analyzed for their albumin content by an enzyme-linked immunosorbent assay (ELISA) as described (Dunn et al. Biotechnol Prog 7: 237-245, 1991).

rat hepatocytes = assay: LDH index (membrane damage) in rat hepatocyte suspensions; format: cell-based; conditions: concentrations up to 100 μM; 6 h
[1] = system: freshly isolated rat hepatocytes; assay: Biotransformation in suspensions of freshly isolated rat hepatocytes; format: in vitro ADME
Description: Male outbred Sprague Dawley rats (Iffa Credo, Brussels, Belgium) weighing 200-300 g were used. The animals were kept under controlled environmental conditions (12 h light-dark cycle) and had free access to food (Animalabo A 04) and water. After intraperitoneal injection of Nembutal® (0.1 ml/kg body weight), hepatocytes were isolated as described by De Smet et al.. Cell integrity was evaluated by trypan blue exclusion, and was 88±3% (n=20). 5, 25 and 50 μM of both compounds were incubated with 2×10^6 hepatocytes/ml (final volume 3 ml) in HEPES buffer (pH 7.65, 37° C.) up to 6 h. Control samples were obtained by boiling the hepatocyte suspension for 2 min prior to the addition of substrate; cell-free controls contained the substrate in the incubation buffer without hepatocytes. At selected time intervals, 1.0 ml aliquots were submersed in liquid nitrogen to stop the biotransformation reaction.
After centrifugation (2000 g, 45 min, 4° C.) of the diluted microsomal samples, the clear supernatant was injected onto a HPLC column. Samples from incubations with hepatocytes were thawed on ice and centrifugated (120 g, 2 min). The supernatants (extracellular) were subjected to solid phase extraction (Waters Oasis™ HLB cartridges, Waters Corporation, Milford, Mass., USA), while cell pellets (intracellular) were ultrasonicated in 1 ml methanol and centrifugated (2000 g, 30 min, 4° C.). Separations ([…]) were performed by reversed-phase HPLC (Kontron chromatographic system, Milan, Italy) on a Discovery C18, 5 μm, 250×4.6 mm column (Supelco, Sigma-Aldrich, Bornem, Belgium). The mobile phase consisted of component A (0.1% (v/v) aqueous trifluoroacetic acid) and component B (0.1% (v/v) trifluoroacetic acid in acetonitrile). A linear gradient from 3 to 80% (v/v) B was used over 30 min at a flow rate of 1.0 ml/min. […]

CYP 2B1/2 = CYP 2B1/2 activity (penthoxyresorufin conversion) in cultured rat hepatocytes; format: cell-based
Source text: Hepatocytes were isolated from male Sprague-Dawley rats by a two-step collagenase perfusion as described (De Smet et al. In ‘Methods in Molecular Biology, Vol. 107: Cytochrome P450 Protocols’, Philips IR and Shephard E A, eds., p.p 295-301, Humana Press, Totowa, 1998). Hepatocytes were cultivated in monolayer cultures with Willam's E Medium (WE) for 7 days. […] The maintenance of differentiation characteristics was studied after 2, 4, and 7 days (D2, D4, D7) of culture.
Phase I biotransformation was assessed by means of activity measurements of the microsomal cytochrome P450 (CYP) 1A1 and 2B1/2 iso-enzymes, using standard techniques known in the art (i.e., measuring conversion of ethoxyresorufin into hydroxyresorufin for CYP 1A1 and conversion of penthoxyresorufin to hydroxyresorufin for CYP 2B1/2) (Burke et al. Drug Metab Dispos 2:583-588, 1974). Microsomes were prepared from freshly isolated and hepatocytes cultured for 7 days according to Hales et al. (Biochem Pharmacol 26:555-556, 1977).

| Compound | p21 expression (p21; 50 μM 4-Me2N-BAVAH + EGF) | secretion of albumin into the culture medium compared with 1 μM TSA (primary rat hepatocytes; 50 μM 4-Me2N-BAVAH from day 0) | increase in albumin secretion (primary rat hepatocytes; 50 μM, 72 hours, versus untreated EGF-stimulated hepatocytes) | cell viability (LDH leakage) of hepatocytes in suspension (rat hepatocytes) | time to full degradation ([1]; 50 μM, 2×10^6 hepatocytes/ml) | half-life in comparison to TSA ([1]; rat hepatocyte suspensions) | p21 accumulation (p21; 1 μM TSA during liver perfusion and culture, 72 hours) | secretion of albumin versus cells isolated in absence of TSA (primary rat hepatocytes; 1 μM TSA in the collagenase perfusion solution) | activity of CYP 2B1/2 versus EtOH-treated controls (CYP 2B1/2; 1 μM TSA starting at 0 h or 4 h, day 4 and 7) | CYP 2B1 Activity (CYP 2B1/2; 7-day conventionally cultured adult rat hepatocytes, 1 μm TSA) | time to complete metabolism / full degradation ([1]; 50 μM, 2×10^6 hepatocytes/ml) |
| --- | --- | --- | --- | --- | --- | --- | --- | --- | --- | --- | --- |
| CN(C)c1ccc(C(=O)NCCCCC(=O)NO)cc1 [4-Me2N-BAVAH, 5-(4-dimethylaminobenzoyl)-aminovaleric acid hydroxamide] | completely inhibited | significantly higher secretion of albumin | 2.44±0.29 fold | not toxic | more than 3 h | longer half-life |  |  |  |  |  |
| CC(C=CC(=O)NO)=CC(C)C(=O)c1ccc(N(C)C)cc1 (stereo not drawn) [TSA] |  |  |  | did not affect cell viability |  |  | complete absence of p21 accumulation | significantly higher secretion of albumin | significantly higher | 4.1 ± 0.7 pmol resorufin/minute mg microsomal protein | ≤ 40 min |
